Laboratory results published in US20200341000A1, “METHOD OF SCREENING COMPOUNDS FOR TREATING CNS DISORDERS” (SAGE THERAPEUTICS, INC., priority 2017, published 2020).
Like-named read-outs stand apart in the source and are kept apart here. Marks after values point to notes of the source that are not given here.

Legend:
α4β3δ GABAA receptors = target: T1, α4β3δ GABAA receptors (Homo sapiens, UniProt O14764+P28472+P48169); experiment: Whole-cell patch clamp, potentiation of GABA EC20 currents at recombinant extrasynaptic-type receptors (CHO cells); type: cell-based
T1 construct: expressed in transfected cells; host or cells: CHO cells (transient transfection, Lipofectamine)
Description: Cellular electrophysiology was used to measure the pharmacological properties of ALLO, ganaxolone and SGE-516 in heterologous cell systems. Compounds were tested for their ability to affect GABA mediated currents at a submaximal agonist dose (GABA EC20=2 μM).
LTK cells were stably transfected with the α1β2γ2 subunits of the GABA receptor and CHO cells are transiently transfected with the α4β3γ subunits via the Lipofecatamine method. Cells were passaged at a confluence of about 50-80% and then seeded onto 35 mm sterile culture dishes containing 2 ml culture complete medium without antibiotics or antimycotics. Cells were cultivated at a density that enabled the recording of single cells without visible connections to other cells.
Whole-cell currents were measured with HEKA EPC-10 amplifiers using PatchMaster software. Bath solution for all experiments contained (in mM): NaCl 137, KCl 4, CaCl2 1.8, MgCl2 1, HEPES 10, D-Glucose 10, pH 7.4 with NaOH. Intracellular (pipette) solution contained (in mM): KCl 130, MgCl2 1, Mg-ATP 5, HEPES 10, EGTA 5, pH 7.2 with KOH. During experiments, cells and solutions were maintained at room temperature (19° C.-30° C.). For manual patchclamp recordings, cell culture dishes were placed on the dish holder of the microscope and continuously perfused (1 ml/min) with bath solution. After formation of a Gigaohm seal between the patch electrode and the cell (pipette resistance range: 2.5 MΩ-6.0MΩ; seal resistance range: >1 GΩ) the cell membrane across the pipette tip was ruptured to assure electrical access to the cell interior (whole-cell patch configuration).
Cells were voltage-clamped at a holding potential of −80 mV. GABAA receptors were activated by 2 μM GABA and compounds were sequentially applied at increasing concentrations for 30 s prior to a 2 s application of GABA. GABA and compounds were applied to cells via the Dynaflow perfusion system (Cellectricon, Sweden). Test compounds were dissolved in DMSO to form 10 mM stock solution and serially diluted to 0.01, 0.1, 1, and 10 μM in bath solution. […] All concentrations of test compound were tested on each cell. The relative percentage potentiation was defined as the peak amplitude in response to GABA EC20 in the presence of test compound divided by the peak amplitude in response to GABA EC20 alone, multiplied by 100.
ALLO and ganaxolone are known PAMs of both synaptic and extrasynaptic GABAAR-mediated currents. […] The α1β2γ2 or α4β3δ subunit combinations were chosen as representatives of typical synaptic and extrasynaptic GABAA receptors respectively.

[1] = test system: sIPSCs in dentate gyms granule cells (DGGCs); experiment: Acute (allosteric) modulation of sIPSCs in DGGCs of hippocampal slices; type: cell-based, mice; details: for mean sIPSC amplitude before versus during exposure / mean sIPSC decay time in the presence of compound: 100 nM; for sIPSC Amplitude / sIPSC Decay / sIPSC Frequency: 100 nM acute exposure, n = 5 to 7 neurons
Description: Brain slices were prepared from 3- to 5-week-old male C57 mice. Mice were anesthetized with isoflurane, decapitated, and brains were rapidly removed and submerged in ice-cold cutting solution containing (mM): 126 NaCl, 2.5 KCl, 0.5 CaCl2, 2 MgCl2, 26 NaHCO3, 1.25 NaH2PO4, 10 glucose, 1.5 sodium pyruvate, and 3 kynurenic acid. Coronal 310 μm thick slices were cut with the vibratome VT1000S (Leica Microsystems, St Louis, Mo., USA). The slices were then transferred into incubation chamber filled with prewarmed (31-32° C.) oxygenated artificial cerebro-spinal fluid (ACSF) of the following composition (in mM): 126 NaCl, 2.5 KCl, 2 CaCl2, 2 MgCl2, 26 NaHCO3, 1.25 NaH2PO4, 10 glucose, 1.5 sodium pyruvate, 1 glutamine, 3 kynurenic acid and 0.005 GABA bubbled with 95% O2-5% CO2. Slices were allowed to recover at 32° C. for at least 1 hr before recording. Exogenous GABA was added in an attempt to standardize ambient GABA in the slice and provide an agonist source for newly inserted extrasynaptic GABAARs.
After recovery, a single slice was transferred to a submerged, dual perfusion recording chamber (Warner Instruments, Hamden, Conn., USA) on the stage of an upright microscope (Nikon FN-1) with a 40× water immersion objective equipped with DIC/IR optics. Slices were maintained at 32° C. and gravity-superfused with ACSF solution throughout experimentation and perfused at rate of 2 ml/min with oxygenated (O2/CO2 95/5%) ACSF.
Whole-cell currents were recorded from the dentate gyms granule cells (DGGCs) in 310-μm-thick coronal hippocampal slices. Patch pipettes (5-7MΩ) were pulled from borosilicate glass (World Precision Instruments) and filled with intracellular solution of the composition (in mM) as follows: 140 CsCl, 1 MgCl2, 0.1 EGTA, 10 HEPES, 2 Mg-ATP, 4 NaCl and 0.3 Na-GTP (pH=7.2 with CsOH). A 5 min period for stabilization after obtaining the whole-cell recording conformation (holding potential of −60 mV) was allowed before currents were recorded using an Axopatch 200B amplifier (Molecular Devices), low-pass filtered at 2 kHz, digitized at 20 kHz (Digidata 1440A; Molecular Devices), and stored for offline analysis.
For tonic current measurements, an all-points histogram was plotted for a 10 s period before and during 100 μM picrotoxin application, once the response reached a plateau level. Recordings with unstable baselines were discarded. Fitting the histogram with a Gaussian distribution gave the mean baseline current amplitude and the difference between the amplitudes before and during picrotoxin was considered to be the tonic current. The negative section of the all-points histogram which corresponds to the inward IPSCs was not fitted with a Gaussian distribution (Kretschmannova et al., 2013; Nusser and Mody, 2002). Series resistance and whole-cell capacitance were continually monitored and compensated throughout the course of the experiment. Recordings were eliminated from data analysis if series resistance increased by >20%. Spontaneous inhibitory post-synaptic currents (sIPSCs) were analyzed using the mini-analysis software (version 5.6.4; Synaptosoft, Decatur, Ga.). Minimum threshold detection was set to 3 times the value of baseline noise signal. To assess sIPSC kinetics, the recording trace was visually inspected and only events with a stable baseline, sharp rising phase, and single peak were used to negate artifacts due to event summation. Only recordings with a minimum of 200 events fitting these criteria were analyzed. sIPSCs amplitude, and frequency from each experimental condition was pooled and expressed as mean±SEM. To measure sIPSC decay, 100 consecutive events were averaged and the decay was fitted to a double exponential and the weighted decay constant (tw) was determined. Statistical analysis was performed by using Student t-test (paired and unpaired where appropriate), where p<0.05 is considered significant.

[2] = relative percentage potentiation of GABA EC20 peak current, n = 3

T1 sequence (P48169 36-554): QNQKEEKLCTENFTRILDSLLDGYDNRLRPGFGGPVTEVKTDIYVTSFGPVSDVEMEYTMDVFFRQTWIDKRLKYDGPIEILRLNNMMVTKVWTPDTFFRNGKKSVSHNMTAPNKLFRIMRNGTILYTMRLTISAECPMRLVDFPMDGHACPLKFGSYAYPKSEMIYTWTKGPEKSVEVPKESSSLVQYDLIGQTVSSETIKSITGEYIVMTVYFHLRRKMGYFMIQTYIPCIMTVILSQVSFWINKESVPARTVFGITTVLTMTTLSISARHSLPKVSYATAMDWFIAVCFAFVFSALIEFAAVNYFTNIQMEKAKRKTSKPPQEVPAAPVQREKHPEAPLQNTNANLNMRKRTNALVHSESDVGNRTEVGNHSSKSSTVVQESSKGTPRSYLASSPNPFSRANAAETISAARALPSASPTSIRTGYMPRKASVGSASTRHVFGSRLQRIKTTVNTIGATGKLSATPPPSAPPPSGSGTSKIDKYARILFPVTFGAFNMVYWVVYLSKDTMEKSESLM
T1 sequence (P28472 26-473): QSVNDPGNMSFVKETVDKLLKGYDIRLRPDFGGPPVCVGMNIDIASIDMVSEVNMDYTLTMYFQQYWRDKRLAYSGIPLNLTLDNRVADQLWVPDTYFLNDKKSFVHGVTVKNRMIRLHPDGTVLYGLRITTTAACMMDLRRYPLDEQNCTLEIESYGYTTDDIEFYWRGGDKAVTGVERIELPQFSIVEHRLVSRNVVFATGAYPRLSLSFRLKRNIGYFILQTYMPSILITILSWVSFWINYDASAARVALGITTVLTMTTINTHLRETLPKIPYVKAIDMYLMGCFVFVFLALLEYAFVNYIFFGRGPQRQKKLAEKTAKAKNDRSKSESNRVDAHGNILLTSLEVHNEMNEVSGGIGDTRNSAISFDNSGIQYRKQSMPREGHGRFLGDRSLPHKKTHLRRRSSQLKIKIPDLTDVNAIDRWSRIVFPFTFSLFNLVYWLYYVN
T1 sequence (O14764 25-452): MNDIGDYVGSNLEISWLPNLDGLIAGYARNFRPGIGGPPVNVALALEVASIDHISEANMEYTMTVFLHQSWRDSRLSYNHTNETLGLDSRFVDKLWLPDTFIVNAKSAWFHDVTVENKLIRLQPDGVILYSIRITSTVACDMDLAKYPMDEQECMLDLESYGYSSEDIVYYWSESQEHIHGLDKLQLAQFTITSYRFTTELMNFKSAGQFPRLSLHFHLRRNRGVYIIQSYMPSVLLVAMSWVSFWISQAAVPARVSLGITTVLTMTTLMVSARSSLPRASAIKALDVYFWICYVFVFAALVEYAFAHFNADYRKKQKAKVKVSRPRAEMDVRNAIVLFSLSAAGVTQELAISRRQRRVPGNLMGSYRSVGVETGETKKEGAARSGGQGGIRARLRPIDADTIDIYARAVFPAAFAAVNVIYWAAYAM

Structure (SMILES) | EC50 (α4β3δ GABAA receptors) [nM] | Emax (α4β3δ GABAA receptors; CHO, relative percentage potentiation of GABA EC20 peak current, n = 3, read-out: Emax ± S.E.M., α4β3δ) [%] | Emax ± S.E.M., α4β3δ (α4β3δ GABAA receptors; [2]) [%] | mean sIPSC amplitude before versus during exposure [1] | mean sIPSC decay time in the presence of compound [1] | sIPSC Amplitude [1] [pA] | sIPSC Decay [1] | sIPSC Frequency [1] [Hz] | pEC50 ± S.E.M., α4β3δ (α4β3δ GABAA receptors; GABA EC20 (2 μM), n = 3) | EC50 (α4β3δ GABAA receptors; GABA EC20 (2 μM), n = 3, read-out: EC50, potentiation of GABA current, α4β3δ) [nM]
CC(=O)[C@H]1CC[C@H]2[C@@H]3CC[C@H]4C[C@H](O)CC[C@]4(C)[C@H]3CC[C@]12C [ALLO, Allopregnanolone] | 57 | 426 | 426 ± 42 | no significant difference | significantly increased | 59.1 ± 0.6 | 19.2 ± 1.3^a ms | 3.4 ± 1.0 |  | 
C[C@@]1(O)CC[C@H]2[C@H](CC[C@@H]3[C@@H]2CC[C@]2(C)[C@@H](C(=O)Cn4nccn4)CC[C@@H]32)C1 [SGE-516] |  |  | 505 ± 19 | no significant difference | significantly increased | 52.9 ± 0.7 | 15.1 ± 0.8^b ms | 4.6 ± 0.6 | 6.7 ± 0.1 | 193
